{"source": "patent US20210180023A1", "about": "“CARDIAC REPAIR BY REPROGRAMMING OF ADULT CARDIAC FIBROBLASTS INTO CARDIOMYOCYTES” (The Board of Regents of the University of Texas System, priority 2017, published 2021)", "key": {"[1]": {"tested_on": "αMHC promoter (αMHC-Luciferase)", "assay": "αMHC-luciferase reporter assay in HEK293 cells", "format": "cell-based", "excerpt": "To determine if ZNF281 could directly activate cardiac genes, the inventors examined the ability of ZNF281 to activate a luciferase reporter controlled by the αMHC promoter (αMHC-Luciferase)."}, "[2]": {"tested_on": "adult αMHC-GFP TTFs", "assay": "Flow cytometry of αMHC-GFP+ and cTnT+ TTFs after retroviral reprogramming", "format": "cell-based, mouse", "details": "ZNF281 added to 5F (6F), 7 days", "experimental": "(§1) Retroviruses production, cellular reprogramming and treatment. For retroviruses production, Platinum E cells were seeded into culture dishes (1×10^5 cells/cm2) one day before transfection in DMEM supplemented with 10% FBS and 1% penicillin/streptomycin. Cells reached ˜80% confluency on the day of transfection. DNA plasmids were transfected into Platinum E cells using FuGENE 6 transfection reagent. Twenty-four hours after transfection, wild type or αMHC-GFP tail-tip fibroblasts were seeded into culture dishes or plates that were precoated with SureCoat (Cellutron) for one hour at a density of 6×10^4/cm^2. Forty-eight hours after transfection, polybrene was added to viral medium that was filtered through a 0.45-μm filter at a concentration of […]. The mixture replaced the growth medium in the cell culture plate with tail-tip fibroblasts. The viral infection was serially repeated twice. Twenty-four hours after the second infection, the viral medium was replaced with induction medium, composed of DMEM/199 (4:1), 10% conditioned medium obtained from neonatal rat cardiomyocyte culture, 10% FBS, 5% horse serum, 1% penicillin/streptomycin, 1% nonessential amino acids, 1% essential amino acids, 1% B-27, 1% insulin-selenium-transferrin, 1% vitamin mixture, and 1% sodium pyruvate (Invitrogen). Small molecule treatments were used throughout the reprogramming process […] (Sigma).\nFlow Cytometry. For flow Cytometry, cells were trypsinized and fixed with fixation buffer (BD Bioscience) for 15 min on ice. Fixed cells were washed with Perm/Wash buffer (BD Bioscience) for three times. […] Cells were washed with Perm/Wash buffer, and then analyzed using FACS Caliber (BD Sciences) and FlowJo software.\nZNF281 enhances cardiac reprogramming of adult fibroblasts. […] The addition of ZNF281 to 5F increased the expression of GFP and cTnT in αMHC-GFP CFs evaluated by immunocytochemistry after 7 days of reprogramming (FIG. 10A). […]"}, "[3]": {"tested_on": "adult tail-tip fibroblasts (TTFs) from αMHC-GFP mice", "assay": "Human retroviral ORF cDNA library screen for AGHMT-mediated cardiac reprogramming (high-throughput imaging of αMHC-GFP and cTnT)", "format": "cell-based, mouse", "details": "individual cDNA expressed together with 5F (AGHMT), 9 days, Z-score ≥2 activator, ≤−2 inhibitor", "excerpt": "Isolation of mouse tail-tip fibroblast. For isolation of adult mouse tail-tip fibroblasts, tails were cut from 8-12 weeks old adult wild-type or αMHC-GFP mouse and were minced into […] with razor blades after peeling off the superficial dermis. The minced tails were placed in fibroblast growth medium (DMEM supplemented with 10% FBS and 1% (vol/vol) penicillin/streptomycin). Tail-tip fibroblasts migrated out from the explants within 1 week and were passaged one time before use.\nConstruction of human retroviral ORFs library. Gateway-compatible Human ORFs pEntry vectors were purchased from Thermo Fisher Scientific. Gateway-compatible retroviral destination vector, pMXs-gw, was a gift from Shinya Yamanaka (Addgene plasmid #18656) (Takahashi, 2006). The inventors transferred each ORF individually into pMXs-gw by performing site-specific LR recombination using Gateway LR Clonase II Enzyme Mix kit (Thermo Fisher Scientific).\nas §1\nImmunocytochemistry. For immunocytochemistry, cells were fixed in 4% paraformaldehyde for 15 min and permeabilized with 0.1% Triton-X in room temperature. Cells were washed with PBS for three times followed by blocking with 10% goat serum for 1 hr. Cells then were incubated with mouse monoclonal anti-cardiac Troponin T (cTnT) antibody (Thermo Scientific) at 1:500 dilutions and rabbit anti-GFP antibody (Thermo Scientific) at 1:500 dilutions in 5% Goat serum for 1 hr. After washing with PBS three times, Cells then were incubated with donkey anti-mouse alexa fluor 647 (Invitrogen) at 1:500 and goat anti-rabbit Alexa fluor 488 at 1:500 (Invitrogen).\nIdentification of activators and inhibitors of cardiac reprogramming in adult fibroblasts. The inventors' previously optimized cardiac reprogramming protocol with five factors (AGHMT, also called 5F) was able to reprogram ˜3% efficiency of adult TTFs to iCMs as measured by activation of a cardiac-specific αMHC-GFP transgene and cardiac troponin T (cTnT) immunostaining (Zhou et al., 2015). To identify additional regulators of cardiac reprogramming, the inventors created a retroviral expression library consisting of 1,052 open reading frame (ORF) cDNAs representing 786 human transcription factor, cytokine, epigenetic regulator and nuclear receptor genes (Table 51). The inventors screened this expression library for activators and inhibitors of cardiac reprogramming by expressing individual cDNAs together with 5F in isolated TTFs from αMHC-GFP mice, as schematized in FIG. 1A. […]"}}}
{"substance": "Zinc finger protein 281 [ZNF281]", "values": [{"measurement": "activation of αMHC-Luciferase reporter", "setting": "[1]; ZNF281 alone", "result": "~7", "unit": "fold"}, {"measurement": "activation of αMHC-Luciferase reporter", "setting": "[1]; ZNF281 co-expressed with GATA4", "result": "~15", "unit": "fold"}, {"measurement": "cTnT+ TTFs", "setting": "[2]", "result": "~45", "unit": "%"}, {"measurement": "αMHC-GFP+ TTFs", "setting": "[2]", "result": "~33", "unit": "%"}, {"measurement": "αMHC-GFP+/cTnT+ TTFs", "setting": "[2]", "result": "~28", "unit": "%"}, {"measurement": "cTnT Z-score", "setting": "[3]", "result": 7.0}, {"measurement": "αMHC Z-score", "setting": "[3]; αMHC-GFP", "result": 2.9}]}
